Two compounds from US8062860B2, “Kit for measuring in vivo mutation frequency at an endogenous gene locus” (Litron Laboratories, Ltd., priority 2006, dated 2011) can be followed below.

Data set [1] concerns pig-a gene. Briefly: three-color flow cytometric scoring of pig-a mutant (CD59-negative) erythrocytes in blood of treated rats (Example 1). It counts as in vivo. As to conditions: rat, 100 mg/kg/day for three days at 48 hr intervals; blood several weeks after final administration; FIG. 3E. The method, then: Whole blood specimens (EDTA as anticoagulant) were obtained from the tail vein of vehicle- or ethyl-N-nitrosourea (ENU) treated rats (100 mg/kg/day for three days at 48 hr intervals; blood collected several weeks after the final administration). […] Thereafter, cells were contacted with anti-CD59-PE to differentially label mutant and non-mutant erythrocytes, and biotinylated anti-CD61 followed by streptavidin-Cy5-PE as a platelet-specific label used to exclude these particles from analysis. After washing steps to remove unbound antibodies and unbound streptavidin-Cy5-PE, cells were resuspended in a thiazole orange solution (0.1 μg/ml). Specimens were incubated at room temperature for about 30 minutes, and thereafter were placed on ice until flow cytometric analysis occurred (within about 4 hours).
As shown by FIGS. 3A-E, the labeling procedure was able to successfully discriminate mature erythrocytes and reticulocytes from other cell types, as well as from platelets. Furthermore, it was capable of providing high fluorescent resolution between CD59-negative and CD59-positive erythrocytes, thus facilitating quantification of mutant erythrocyte frequency.
The flow cytometry data acquisition/analysis software (CellQuest v3.3) allowed for configuring alternative gating strategies.
In general terms: A flow cytometer gives signals particle by particle.

In data set [2] the test system is pig-a gene. Briefly: pig-a mutant erythrocyte frequency measured with and without aerolysin selective lysis, using counting beads (Example 3). The format is in vivo, Sprague-Dawley rat. As to conditions: female rats; ENU 100 mg/kg/day or DMBA 40 mg/kg/day on three days; blood 6 weeks thereafter; vs untreated; FIG. 5. The method, then: Blood samples are obtained and processed (labeling with fluorochromes) as described above. Specimens were subsequently divided to provide pig-a mutant erythrocyte frequency measurements made with and without the use of aerolysin. To each of the samples, a small volume of high density microsphere suspension is added. Preferably, between about 10^3 to about 10^6 microspheres/specimen are added. Suitable microspheres are commercially available from a number of sources, including Becton Dickinson, Molecular Probes, and Polysciences. After mixing each sample to ensure a homogeneous suspension, a small aliquot of each cell/microsphere solution is transferred to a tube containing a balanced salt solution such that the resulting dilution yields a density of beads and cells which is low enough so that the rate of particles passing through the detection device yields accurate measurements (e.g., less than about 7,000 events per second for a Becton Dickinson FACSCalibur; higher densities may lead to excessive coincidence, which is multiple particles simultaneously at the fluid stream-laser beam intersection). The other (undiluted) specimen is treated with aerolysin to lyse the majority of non-mutant erythrocytes and reticulocytes. Reticulocyte:bead ratios are measured for both diluted and undiluted/aerolysin-treated samples using, e.g., an optical detection system of the type described above. From these ratios, it is possible to calculate the frequency of mutant reticulocytes per 10^6 reticulocytes.
For example, a small volume of a bead stock suspension (10 μl) is added to a suspension of high density cells that have been stained for a mutation frequency determination (1 ml). A small fraction of the cell/bead suspension is then transferred to a tube containing an isotonic solution such that the resulting density of beads and cells is low enough to prevent excessive coincidence. Flow cytometric analysis then allows for determination of the reticulocyte to bead ratio; for example 7,500 reticulocytes and 100 beads would indicate a ratio of 75 reticulocytes per bead. The aerolysin-treated specimen (with a majority of non-mutant erythrocytes and reticulocytes lysed due to aerolysin) is subsequently analyzed. Even while the majority of erythrocytes and reticulocytes have been lysed, it is still possible to analyze 10^6 or more “virtual reticulocytes” by setting the stop mode so that the proportionate number of beads (which are unaffected by aerolysin) have been interrogated. In this example, the stop mode would be set so that data accumulate until 10^6 divided by 75 beads have been acquired, i.e., 13,333 beads. In this manner, it is possible to score the number of mutant reticulocytes per 13,333 beads, or in other words, per 10^6 virtual reticulocytes. […]

Data set [3] deals with pig-a gene. Briefly: time course of CD59-negative reticulocyte frequency with FL1 thresholding (Example 4). It counts as in vivo, Sprague Dawley rat. The text has this:
In this case, it is possible to set the threshold parameter to the nucleic acid dye-associated fluorescence channel (e.g., FL1 for thiazole orange), as opposed to the more common forward scatter trigger. When set sufficiently high (that is, above the fluorescence intensity of mature erythrocytes), this can restrict analysis to reticulocytes.
Rather, it must be coupled with the preparation of very high density specimens. When these two adjustments are made, much quicker data acquisition rates are achieved. For instance, by eliminating mature erythrocytes with an FL1 threshold and analyzing specimens prepared at very high cell densities (for example 3×10^8/ml), it is possible to reduce the time needed to acquire 10^6 reticulocytes from 80 minutes to about 5 to 15 minutes.
The use of serial blood specimens also facilitated an assessment of the influence of blood harvest time. For this experiment, Sprague Dawley rats were treated with either vehicle or […] on three days (M, W, F). Blood was collected from the tail vein of these animals before treatment and over a 5 week post-exposure period. After two washing steps, high density blood samples were stained according to the present invention. […] Cells were analyzed according to the FL1 thresholding technique described in Example 2.

Data set [4] deals with pig-a gene. In words: mutant erythrocytes versus mutant reticulocytes, FSC and FL1 thresholding (Example 5). The format is in vivo, rat. As to conditions: rats, 100 mg ENU/kg/day or 40 mg DMBA/kg/day three times in one week; 4 weeks post-exposure; vs untreated; FIG. 7. The text has this: In practice, this means the mutation frequency for entire erythrocyte population and a mutation frequency for the reticulocyte fraction can each be efficiently determined by analyzing each stained blood specimen two times: once at high density with FL1 thresholding, and a second time upon dilution using a FSC threshold setting. In this manner it is possible to efficiently interrogate enough cells (e.g. 10^6 reticulocytes and also 10^6 total erythrocytes) for accurate measures of mutant frequency (see FIGS. 4A-B).
For this experiment, rats were untreated, or exposed to 100 mg ENU/kg/day or 40 mg DMBA/kg/day. These exposures were performed three times in one week (M, W, F). Blood was collected from the tail vein of these animals 4 weeks post-exposure. Blood samples were stained according to the present invention. Specifically, high density blood specimens were contacted with anti-CD59-PE to differentially label mutant and non-mutant erythrocytes, and biotinylated anti-CD61 followed by streptavidin-Cy5-PE as a platelet-specific label used to exclude these particles from analysis. After a washing steps to remove unbound antibodies and streptavidin-Cy5-PE, cells were resuspended in a thiazole orange solution (0.1 μg/ml) and allowed to incubate at room temperature for about 30 minutes. Specimens were placed on ice and protected from light until flow cytometric analysis (within about 4 hours). Cells were analyzed at low density with FSC thresholding, and also at high density with FL1 thresholding. As described in Example 2, this provided mutant frequencies in both the total erythrocyte and the reticulocyte populations.

Molecules are shown by their SMILES. “Also recorded” adds a separate entry of the source.

As for `CCN(N=O)C(N)=O` [ENU, ethyl-N-nitrosourea], the “frequency of mutant (CD59-negative) erythrocytes” value in the data set on pig-a gene [1] is “relatively high frequency of mutant erythrocytes”. For the same compound, in the data set on pig-a gene [2], the “mutant erythrocyte (CD59-negative) frequency, analysis with aerolysin to enrich for mutants” value is “significant increases” and the “mutant erythrocyte (CD59-negative) frequency, analysis without aerolysin” value is given as “significant increases”. Also, the “CD59- (mutant) reticulocyte frequency” value in the data set with pig-a gene [3] (rats, 100 mg ENU/mg/day on three days, 5 week post-exposure period, three animals, vs vehicle, FIG. 6) is “greatly elevated; also recorded: markedly elevated”. For the same compound, the “time of maximal mutant reticulocyte frequency” value in the data set on pig-a gene [3] (two of the three ENU-treated animals (E2 and E3), animal E1 continued to rise through week 5) came to 4 week. Further, in the data set on pig-a gene [4], the “frequency of CD59-negative erythrocytes (total erythrocyte population)” value is “greatly elevated” and the “frequency of CD59-negative reticulocytes” value is reported as “greatly elevated”.
With `Cc1c2ccccc2c(C)c2c1ccc1ccccc12` [DMBA, 7,12-dimethyl-1,2-benz[a]anthracene], in the data set with pig-a gene [2], the “mutant erythrocyte (CD59-negative) frequency, analysis with aerolysin to enrich for mutants” value is recorded as “significant increases” and the “mutant erythrocyte (CD59-negative) frequency, analysis without aerolysin” value is “significant increases”. Further, in the data set with pig-a gene [4], the “frequency of CD59-negative erythrocytes (total erythrocyte population)” value is on record as “greatly elevated” and the “frequency of CD59-negative reticulocytes” value is recorded as “greatly elevated”.
